Data: US20070032409A1, “Bradykinin receptor antagonists and uses thereof” (VANDERBILT UNIVERSITY, priority 2005, published 2007)
Read-outs that look alike come from different tables or passages of the source.

How the values were obtained:
[1] = biological target: T1, carboxypeptidase N (kininase I) (Homo sapiens, UniProt P15169); conditions: cited from earlier work
T1 sequence (P15169 21-458): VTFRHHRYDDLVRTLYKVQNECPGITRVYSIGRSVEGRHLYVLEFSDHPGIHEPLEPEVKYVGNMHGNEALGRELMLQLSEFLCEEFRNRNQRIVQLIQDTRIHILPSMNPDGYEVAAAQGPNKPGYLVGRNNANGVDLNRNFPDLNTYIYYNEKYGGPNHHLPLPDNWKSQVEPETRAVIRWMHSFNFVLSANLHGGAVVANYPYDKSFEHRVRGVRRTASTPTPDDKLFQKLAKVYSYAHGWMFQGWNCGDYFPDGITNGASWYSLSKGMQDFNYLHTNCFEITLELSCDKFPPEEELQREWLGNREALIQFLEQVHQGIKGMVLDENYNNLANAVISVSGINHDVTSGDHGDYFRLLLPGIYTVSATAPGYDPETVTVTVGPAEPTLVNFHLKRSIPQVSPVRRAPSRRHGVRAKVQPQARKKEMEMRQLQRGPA
T1 sequence (P22792 22-545 partner): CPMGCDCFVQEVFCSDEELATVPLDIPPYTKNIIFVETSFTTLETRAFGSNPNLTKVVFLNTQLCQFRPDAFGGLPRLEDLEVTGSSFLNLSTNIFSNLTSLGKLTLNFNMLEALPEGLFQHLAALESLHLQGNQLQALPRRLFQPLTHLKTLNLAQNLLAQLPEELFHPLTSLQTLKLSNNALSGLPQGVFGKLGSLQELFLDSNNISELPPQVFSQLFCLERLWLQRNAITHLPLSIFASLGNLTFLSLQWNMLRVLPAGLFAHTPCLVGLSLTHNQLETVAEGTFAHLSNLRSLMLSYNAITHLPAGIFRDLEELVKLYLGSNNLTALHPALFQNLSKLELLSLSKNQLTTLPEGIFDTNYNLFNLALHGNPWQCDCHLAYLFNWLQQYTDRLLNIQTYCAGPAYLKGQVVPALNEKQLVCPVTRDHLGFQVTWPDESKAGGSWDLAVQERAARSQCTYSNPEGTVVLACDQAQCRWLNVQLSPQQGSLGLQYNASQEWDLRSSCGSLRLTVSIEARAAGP

[2] = biological target: angiotensin-converting enzyme (ACE) (Homo sapiens, UniProt P12821); conditions: cited from earlier work
[3] = biological target: neutral endopeptidase 24.11 (Homo sapiens, UniProt P08473); conditions: cited from earlier work
aminopeptidase M = aminopeptidase M (Homo sapiens, UniProt P15144); conditions: cited from earlier work
[4] = cited from earlier work
bradykinin = experiment: Arterial bradykinin concentrations before and after protamine, enzyme immunoassay; conditions: all patients; for bradykinin concentration after protamine: P=0.006
[5] = system: adult patients undergoing elective cardiac surgery requiring CPB; experiment: Hemodynamic response (MAP, heart rate) to protamine infusion, double-blind randomized study; format: in vivo, human
Description: The present inventors conducted a double-blind randomized study in sixteen adult male patients undergoing elective cardiac surgery requiring CPB and taking an angiotensin-converting enzyme inhibitor preoperatively. […] Mean arterial pressure (MAP) and tissue-type plasminogen activator (t-PA) activity were measured intraoperatively and before and after protamine.
Sixteen adult patients undergoing elective cardiac surgery requiring CPB and taking an ACE inhibitor preoperatively were studied. Patients were excluded if they had evidence of coagulopathy (INR greater than 1.7), underwent emergency surgery, underwent redo-CABG, had taken a glycoprotein IIb/IIIa antagonist within 2 days of surgery or had renal insufficiency (baseline creatinine>1.5 mg/dl). All patients provided written informed consent.

[6] = system: adult patients undergoing elective cardiac surgery requiring CPB; experiment: Safety: intra- and postoperative patient characteristics; format: in vivo, human; conditions: HOE 140 group N=8
Description: Patients were transfused according to the following guidelines: packed red blood cells (PRBC) were transfused for a hematocrit less than 20% during CPB and for a hematocrit less than 25% after CPB, CPB time >120 min, or evidence of end-organ dysfunction. Platelets were transfused in 5-U sets for ongoing microvascular bleeding despite a normalized ACT. Fresh frozen plasma (FFP) was given for continued bleeding only after platelets were given. Transfusion requirements were recorded from the beginning of surgery until hospital discharge.

[7] = system: tissue factor and plasminogen activator inhibitor-1; conditions: cited from earlier work
[8] = system: pancreatitis-induced hypotension; conditions: dog, in vivo; cited from earlier work
rats = conditions: after i.v. bradykinin, endogenously-released kinins, induction of acute pancreatitis; cited from earlier work
[9] = system: bradykinin-induced hypotension; conditions: correlated with antagonism of bradykinin-induced hypotension; cited from earlier work
[10] = system: hypotensive transgenic mice that harbor the B2 receptor; conditions: mouse, in vivo; cited from earlier work
[11] = system: vasodilation in response to exogenous bradykinin; conditions: HOE 140 100 μg/kg; cited from earlier work
t-PA antigen = t-PA antigen in arterial blood, 2-site ELISA
[12] = system: plasminogen activator inhibitor -1 (PAI-1) antigen; experiment: PAI-1 antigen in arterial blood, 2-site ELISA; conditions: HOE 140 group N=8
[13] = system: tissue-type plasminogen activator (t-PA) activity; experiment: t-PA activity in arterial blood, chromogenic substrate kit
[14] = protamine 250 mg over 8 min after CPB
[15] = HOE 140 group N=8, mean±SD, in beats/min (unit assumed)

neutral endopeptidase 24.11, sequence (P08473 whole entry, species assumed): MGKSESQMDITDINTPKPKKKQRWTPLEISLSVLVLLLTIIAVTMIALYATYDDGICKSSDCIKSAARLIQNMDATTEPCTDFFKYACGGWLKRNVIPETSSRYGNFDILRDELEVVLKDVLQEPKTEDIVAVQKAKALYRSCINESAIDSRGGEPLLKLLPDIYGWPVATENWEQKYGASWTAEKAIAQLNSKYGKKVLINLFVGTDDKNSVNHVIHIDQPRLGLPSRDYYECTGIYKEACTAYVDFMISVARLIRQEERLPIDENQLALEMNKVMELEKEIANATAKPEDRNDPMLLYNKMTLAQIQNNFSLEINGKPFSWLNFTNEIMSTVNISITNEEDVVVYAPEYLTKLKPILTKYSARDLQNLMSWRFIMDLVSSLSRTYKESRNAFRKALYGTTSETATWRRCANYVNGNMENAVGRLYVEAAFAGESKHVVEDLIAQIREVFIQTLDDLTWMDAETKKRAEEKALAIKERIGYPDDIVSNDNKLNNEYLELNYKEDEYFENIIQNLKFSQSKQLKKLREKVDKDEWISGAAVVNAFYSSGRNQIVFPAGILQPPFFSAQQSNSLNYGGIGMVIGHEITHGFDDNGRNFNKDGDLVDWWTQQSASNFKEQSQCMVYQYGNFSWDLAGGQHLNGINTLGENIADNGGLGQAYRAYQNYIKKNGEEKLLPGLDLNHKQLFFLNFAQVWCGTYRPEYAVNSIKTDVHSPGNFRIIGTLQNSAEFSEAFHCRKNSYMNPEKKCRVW
aminopeptidase M, sequence (P15144 whole entry, species assumed): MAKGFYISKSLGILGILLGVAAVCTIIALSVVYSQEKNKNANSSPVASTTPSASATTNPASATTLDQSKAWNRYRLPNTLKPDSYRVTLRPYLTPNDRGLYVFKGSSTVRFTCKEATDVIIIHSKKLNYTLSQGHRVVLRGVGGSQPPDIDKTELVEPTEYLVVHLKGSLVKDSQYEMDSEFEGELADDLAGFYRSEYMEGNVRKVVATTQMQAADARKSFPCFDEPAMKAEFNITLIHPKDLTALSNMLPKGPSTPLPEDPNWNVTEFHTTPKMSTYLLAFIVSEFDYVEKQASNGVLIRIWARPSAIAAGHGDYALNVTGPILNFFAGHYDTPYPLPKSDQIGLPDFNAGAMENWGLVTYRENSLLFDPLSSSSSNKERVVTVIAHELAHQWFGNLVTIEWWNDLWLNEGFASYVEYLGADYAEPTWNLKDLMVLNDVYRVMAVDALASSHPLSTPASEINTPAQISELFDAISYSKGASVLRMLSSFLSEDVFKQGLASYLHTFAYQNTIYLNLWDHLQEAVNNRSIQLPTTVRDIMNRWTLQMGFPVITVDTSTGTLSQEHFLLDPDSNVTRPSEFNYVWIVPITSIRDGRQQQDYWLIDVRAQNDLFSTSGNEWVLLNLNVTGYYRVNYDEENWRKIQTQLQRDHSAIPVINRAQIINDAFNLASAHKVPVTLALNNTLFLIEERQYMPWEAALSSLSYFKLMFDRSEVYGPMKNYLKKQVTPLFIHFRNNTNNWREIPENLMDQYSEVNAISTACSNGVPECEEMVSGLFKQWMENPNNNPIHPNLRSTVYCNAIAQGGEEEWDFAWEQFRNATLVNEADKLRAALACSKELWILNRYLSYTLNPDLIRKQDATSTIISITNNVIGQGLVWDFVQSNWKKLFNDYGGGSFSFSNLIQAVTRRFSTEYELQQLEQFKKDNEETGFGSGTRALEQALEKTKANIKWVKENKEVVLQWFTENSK
angiotensin-converting enzyme (ACE), sequence (P12821 30-1306, species assumed): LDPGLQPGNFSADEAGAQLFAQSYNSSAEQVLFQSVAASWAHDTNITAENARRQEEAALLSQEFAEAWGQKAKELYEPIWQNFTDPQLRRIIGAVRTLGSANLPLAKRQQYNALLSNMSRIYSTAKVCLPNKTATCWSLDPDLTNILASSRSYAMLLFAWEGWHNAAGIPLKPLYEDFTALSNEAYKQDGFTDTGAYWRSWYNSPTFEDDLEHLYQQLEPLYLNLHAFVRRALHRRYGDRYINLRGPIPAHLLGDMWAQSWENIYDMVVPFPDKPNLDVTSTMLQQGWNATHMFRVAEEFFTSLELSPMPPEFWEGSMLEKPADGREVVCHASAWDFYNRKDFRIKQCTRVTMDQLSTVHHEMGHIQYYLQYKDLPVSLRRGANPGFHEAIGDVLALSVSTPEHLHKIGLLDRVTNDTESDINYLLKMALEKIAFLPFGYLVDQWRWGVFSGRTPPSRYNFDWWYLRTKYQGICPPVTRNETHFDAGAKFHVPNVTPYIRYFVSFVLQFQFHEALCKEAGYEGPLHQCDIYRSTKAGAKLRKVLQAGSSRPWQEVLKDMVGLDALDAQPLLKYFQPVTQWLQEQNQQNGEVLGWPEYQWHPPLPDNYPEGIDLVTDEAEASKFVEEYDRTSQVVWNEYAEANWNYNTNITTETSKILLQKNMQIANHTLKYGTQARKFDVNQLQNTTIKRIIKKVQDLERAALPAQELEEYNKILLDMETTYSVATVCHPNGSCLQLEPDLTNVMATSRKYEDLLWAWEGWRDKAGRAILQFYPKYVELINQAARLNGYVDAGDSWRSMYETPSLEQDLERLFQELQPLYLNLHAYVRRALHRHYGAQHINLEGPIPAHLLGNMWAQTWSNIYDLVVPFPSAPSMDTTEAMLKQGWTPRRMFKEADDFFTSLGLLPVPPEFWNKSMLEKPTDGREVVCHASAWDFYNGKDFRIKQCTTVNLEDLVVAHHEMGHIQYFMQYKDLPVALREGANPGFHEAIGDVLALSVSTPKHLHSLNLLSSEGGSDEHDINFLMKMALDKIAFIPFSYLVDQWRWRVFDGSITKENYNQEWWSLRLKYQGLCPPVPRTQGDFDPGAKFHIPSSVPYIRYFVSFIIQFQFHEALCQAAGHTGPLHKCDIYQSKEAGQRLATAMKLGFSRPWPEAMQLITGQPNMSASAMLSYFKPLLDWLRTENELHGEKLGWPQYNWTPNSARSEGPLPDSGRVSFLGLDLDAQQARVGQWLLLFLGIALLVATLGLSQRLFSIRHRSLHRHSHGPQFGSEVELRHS

Protamine: highly basic polycationic polypeptide given at the end of CPB to reverse the anticoagulation effects of heparin (SEQ ID NO:1) (MARYRCCRSQSRSRYYRQRQRSRRRRRRSCQTRRRAMRCCRPRYRPRCRRH)
inhibition of carboxypeptidase N (kininase I) [1]: inhibits
inhibition of angiotensin-converting enzyme (ACE) [2]: does not inhibit
inhibition of neutral endopeptidase 24.11 [3]: does not inhibit
inhibition of aminopeptidase M (aminopeptidase M): does not inhibit
time to neutralization of heparin ([4]; after i.v. administration): ≤ 5 min
heparin activity neutralized per mg of protamine sulfate ([4]; heparin derived from intestinal mucosa): about 115 USP units
heparin activity neutralized per mg of protamine sulfate ([4]; heparin derived from lung tissue): approximately 90 USP units
bradykinin concentration before protamine (bradykinin): 6.3±4.3 finol/ml
bradykinin concentration after protamine (bradykinin): 12.2±9.8 finol/ml
bradykinin concentration before protamine (bradykinin; [14]): 6.3 ± 4.3 fmol/mL
bradykinin concentration after protamine (bradykinin; [14]): 12.2 ± 9.8 fmol/mL

NC(N)=NCCC[C@@H](N)C(=O)N[C@@H](CCCN=C(N)N)C(=O)N1CCC[C@H]1C(=O)N1C[C@H](O)C[C@H]1C(=O)NCC(=O)N[C@@H](Cc1cccs1)C(=O)N[C@@H](CO)C(=O)N1Cc2ccccc2C[C@@H]1C(=O)N1[C@H](C(=O)N[C@@H](CCCN=C(N)N)C(=O)O)C[C@@H]2CCCC[C@@H]21 [HOE 140]
MAP during protamine infusion (nadir) ([5]; HOE 140 100 μg/kg i.v. before protamine, N=8, mean±SD): 69.6±3.4 mmHg
MAP at the start of the protamine infusion (pre-protamine) ([5]; HOE 140 100 μg/kg i.v. over one-half hour at end of CPB before protamine, N=8, mean±SD): 74.3±10.6 mmHg
heart rate after protamine [5, 15]: 81.0±14.0
heart rate prior to protamine [5, 15]: 91.4±9.5
effect on decrease in MAP during protamine infusion ([5]; P=0.022, ANOVA, versus saline): significantly blunted
reduction of mean arterial pressure by protamine ([5]; in the presence of HOE 140): about 6%
CT 4 hours (chest tube output) [6]: 299.4 ± 233.0 mL
CT 24 hours (chest tube output) [6]: 759.6 ± 276.4 mL
Fresh frozen plasma transfusion [6]: 0.4 ± 1.1 Units
New onset atrial fibrillation [6]: 1(12.5) N(%)
PRBC transfusion [6]: 4.4 ± 4.0 Units
Platelet transfusion [6]: 275 ± 177 mL
Time to extubation >10 hours [6]: 2(25) N(%)
effect on bradykinin-increased expression of tissue factor and PAI-1 [7]: suppressed
effect on pancreatitis-induced hypotension [8]: improvement of the hypotension in some animals
effect on release of bradykinin and beta-endorphin [8]: inhibited
effect on decreases in blood pressure (rats): blocks
effect on blood pressure [9]: increased blood pressure
effect on blood pressure [10]: restoring blood pressure to normal levels
effect on vasodilation in response to exogenous bradykinin [11]: prevents vasodilation
t-PA antigen after protamine administration (t-PA antigen; HOE 140 group N=8): 22.7 ± 9.1 ng/mL
t-PA antigen after study drug infusion, before protamine (t-PA antigen; HOE 140 group N=8): 20.1 ± 6.1 ng/mL
t-PA antigen before study drug infusion (t-PA antigen; HOE 140 group, intraoperative, N=8): 23.4 ± 12.6 ng/mL
PAI-1 antigen after protamine administration [12]: 27.4 ± 15.5 ng/mL
PAI-1 antigen before protamine administration [12]: 20.2 ± 17.1 ng/mL
PAI-1 antigen on postoperative day 1 [12]: 32.4 ± 10.1 ng/mL
t-PA activity, intraoperative ([13]; 60 min after initiation of CPB, prior to receiving HOE 140, N=8): 3.59±0.88 IU/ml
t-PA activity, pre-protamine ([13]; after HOE 140 administration (100 μg/kg i.v.), before protamine, N=8): 1.67±1.18 IU/ml
t-PA activity, post-protamine ([13]; after protamine infusion in HOE 140 group, N=8): 0.77±0.74 IU/ml
t-PA activity, baseline ([13]; before initiation of CPB, prior to HOE 140, N=8): 0.42±0.29 IU/ml
change in t-PA activity ([13]; during HOE 140 administration, P=0.036 compared to saline): −1.92±0.94 IU/ml
